Measurements from US12558345B2, “CHK1/2 inhibitors for use in the treatment of neuroblastomas and/or soft tissue sarcomas” (Eli Lilly and Company, priority 2015, dated 2026).
Structures can show the parent of a compound that is named as a salt.

Tests used:
HT-29 cells = assay: ECtfs (Two-Fold Sensitization) Assay; assay type: cell-based
Method: An inhibitor of CHK1 can potentiate the anti-proliferative activity of gemcitabine (or other cytotoxics) through abrogation of the intra-S phase checkpoint, resulting in sustained and increased DNA damage. The capacity for continued tumor cell proliferation after DNA damage can be analyzed by determining the ability of cells to replicate their DNA. […] In this assay, cells are treated with gemcitabine, and then with the compound of Example 2. Following a recovery period, cells are assayed for the ability to incorporate radioactive thymidine into DNA during S phase. The ECtfs parameter is a measure of the concentration of a CHK1 inhibitor necessary to reduce by half the GI90 concentration of gemcitabine, measured in this assay in the absence of CHK1 inhibition. HT-29 cells (obtained from ATCC), are grown in RPMI 1640 plus (Gibco™) 10% (v/v) heat inactivated FBS. These cells are plated at 1.3×10^3 per well on Corning Costar 96-well tissue culture plates. After plating the cells, the tissue culture plates are held at room temperature for 45 minutes, before returning to 37° C. Plates are incubated for 24 hours prior to gemcitabine addition. Before gemcitabine addition, medium is removed from all wells and replaced with 150 μL per well of fresh RPMI medium. Gemcitabine stocks at 10 mM are prepared in PBS. Gemcitabine dilutions were prepared at 4× concentrations in RPMI medium and added to wells at 50 μL per well. The highest final concentration of gemcitabine used is 80 μM and dilutions proceed by four-fold steps. Two hours later, gemcitabine-containing medium is removed from the wells and replaced with 150 μL per well of fresh RPMI medium. […] The volume of addition is 50 μL. Compound dilutions proceed by two-fold steps, starting at 5000 nM. […] Twenty μL of this solution is added to each well, yielding 1 µCi/well of ^3H-thymidine. Cells are labeled for twenty-two hours. The medium containing ^3H-thymidine is thoroughly removed from the wells. The plates are then frozen at −20° C., for several hours. To harvest the DNA containing incorporated ^3H-thymidine, plates are thawed for several minutes, and then 120 μL per well of 0.1 N NaOH is added to each well. Each plate is then incubated at 37° C., with slow mixing on a rotator, for 10 minutes. DNA is harvested with a Filtermate 196 Harvester (PerkinElmer) and collected on 96-well Unifilter GF/C plates (PerkinElmer #6005174). The wells of the tissue culture plate on which cells had been labeled are washed with water (5×). The Unifilter plate membranes are washed with an additional 4.5 mL per well (3×1.0 mL and finally a 1.5 mL wash). The Unifi is sealed with a Backseal adhesive sheet (PerkinElmer), and the 50 μL/well of MicroScint-20 (Perkin Elmer) is added. Each plate is then sealed with a Topseal clear adhesive sheet (PerkinElmer). Plates are counted on a Topcount scintillation counter (PerkinElmer), at 1 minute per well. ^3H-thymidine counts per minute (cpm) are exported into Prism (GraphPad) for analysis and plotting. […] For plotting the data in Prism, the gemcitabine concentrations are transformed to log values, and dose-response curves are fit by non-linear regression. Neither top nor bottom fits are constrained. The ECtfs value is 0.3 nM.

[1] = tested on: SJCRH-30 human RMS cancer cell xenograft; assay: Xenograft Tumor Model SJCRH-30; assay type: in vivo, mouse
Method: (§1) The efficacy of 5-(5-(2-(3-aminopropoxy)-6-methoxyphenyl)-1H-pyrazol-3-ylamino)pyrazine-2-carbonitrile methanesulfonic acid monohydrate is measurable in vivo in mouse models of neuroblastomas and human pediatric and adult sarcomas. 5-(5-(2-(3-Aminopropoxy)-6-methoxyphenyl)-1H-pyrazol-3-ylamino)pyrazine-2-carbonitrile methanesulfonic acid monohydrate (10 mg/kg) can be administered subcutaneously to nude mice bearing either cell-derived xenografts (CDX) or patient-derived xenografts (PDX) of human rhabdomyosarcoma, desmoplastic small round cell tumor (DSRCT), osteosarcoma, and Ewing's sarcoma using a 3 day on, 4 day off b.i.d. dosing schedule. Tumor volume and body weight can be measured two times per week. Tumor-specific parameters can be evaluated by immumohistochemistry.
Expand human RMS cancer cells SJCRH-30 (St. Jude Children's Research Hospital) in culture, harvest, and inject 5×10^6 cells in 200 μL of HBSS subcutaneously into the right rear flank of female athymic nude mice (20-22 g, Harlan Laboratories). Expand human rhabdomyosarcoma cancer cells RD (ATCC, #CCL-136) in culture, harvest, and inject, 5×10^6 cells in 200 μL of HBSS subcutaneously into the right rear flank of female athymic nude mice (20-22 g, Harlan Laboratories).
(§2) For all “ST” models (encompassing RMS and LMS), patient-derived xenografts are established from viable human tumor tissue and are serially passaged in animals a limited number of times to maintain tumor heterogeneity. In subcutaneous models, athymic nude mice (Crl:NU(NCr)-Foxn1nu) or CB-17 SCID mice (CRL-CB17/Icr-Prkdcscid/IcrIcoCrl) are injected or implanted unilaterally into the flank with tumor fragments harvested from host animals, each implanted from a specific passage lot. For all studies, measure tumor growth and body weight twice per week beginning on the seventh day after implantation. When tumor size reaches 150-300 mm^3, randomize animals and group into groups of 4-7 animals. Prepare test compound in an appropriate vehicle (e.g. vehicle can be 20% Captisol® in sterile water) and administer subcutaneously for three consecutive days followed by a four day dosing holiday and repeat for a minimum of four weeks. Tumor response is determined by tumor volume measurement performed twice per week during the course of treatment.

[2] = tested on: CTG-0243 OS patient-derived xenograft; assay: Xenograft Tumor Model CTG-0243; assay type: in vivo, mouse; conditions: comparator day 22, p-value 0.089
Method: as §1, with “immumohistochemistry. […]” for “immumohistochemistry.”
(§3) For all “ST” models (encompassing RMS and LMS), patient-derived xenografts are established from viable human tumor tissue and are serially passaged in animals a limited number of times to maintain tumor heterogeneity. […] Tumor response is determined by tumor volume measurement performed twice per week during the course of treatment.

adult sarcoma models = assay: Adult sarcoma models evaluated in vivo (panel); parameters: species or system mouse
Description: (§4) For all “CTG” models (encompassing human RMS, DSRCT, EWS, OS and LMS patient-derived xenograft models), female NCr nude spontaneous mutant mice (5-8 weeks old, Taconic) are implanted unilaterally in the flank region with tumor fragments harvested from donor animals, each implanted from a specific passage lot.
as §2

[3] = tested on: Ewing's Sarcoma xenograft models; assay: Sarcoma xenograft models by tumor subtype: Ewing's Sarcoma; assay type: in vivo, mouse; conditions: age of patients 8-17 years
Method: as §1, with “immumohistochemistry. […]” for “immumohistochemistry.”
as §3

[4] = tested on: Leiomyosarcoma xenograft models; assay: Sarcoma xenograft models by tumor subtype: Leiomyosarcoma; assay type: in vivo, mouse
Description: as §4, §2

[5] = tested on: Embryonal Rhabdomyosarcoma xenograft models; assay: Sarcoma xenograft models by tumor subtype: Embryonal Rhabdomyosarcoma; assay type: in vivo, mouse; conditions: age of patients 2-7 years
Method: as §1
Expand human RMS cancer cells SJCRH-30 (St. Jude Children's Research Hospital) in culture, harvest, and inject 5×10^6 cells in 200 μL of HBSS subcutaneously into the right rear flank of female athymic nude mice (20-22 g, Harlan Laboratories). […]
as §3

[6] = tested on: ST162 patient-derived xenograft; assay: Xenograft Tumor Model ST162; assay type: in vivo, mouse; conditions: ST162, LMS, comparator day 39, p-value <0.001
Method: as §2

[7] = tested on: CTG-1006 LMS patient-derived xenograft; assay: Xenograft Tumor Model CTG-1006; assay type: in vivo, mouse; conditions: comparator day 27, p-value <0.001
Description: as §4, §2

[8] = Leiomyosarcoma, age of patients 48-64 years

Row | SMILES | decrease of the EC50 of gemcitabine (HT-29 cells; HT29 cells, 3 nM of the compound of Example 2) [fold] | ECtfs value (HT-29 cells; HT-29 cells, concentration necessary to reduce by half the GI90 concentration of gemcitabine, 3H-thymidine incorporation) [nM] | effect on the proliferation of HT29 cells (HT-29 cells; compound alone, 3 nM) | % Regression ([1]; SJCRH-30, RMS, comparator day 38, p-value <0.001) [%] | course of the regression upon withdrawal of the drug ([1]; SJCRH-30 aRMS model) | tumor response during treatment ([1]; SJCRH-30 aRMS model) | response of subsequent regrowth to further treatment ([1]; SJCRH-30 aRMS model, 10 mg/kg) | % T/C [2] [%] | adult sarcoma models sensitive to single agent treatment (models) (adult sarcoma models) | adult sarcoma models sensitive to single agent treatment (percent) (adult sarcoma models) [%] | Result of Treatment: Stable Disease (models) [3] | Result of Treatment: Partial Response (models) [4, 8] | Result of Treatment: Stable Disease (models) [4, 8] | activity in PDX models ([4]; PDX models of leiomyosarcoma) | Result of Treatment: Complete Response (models) [5] | Result of Treatment: Stable Disease (models) [5] | % Regression [6] [%] | % Regression [7] [%]
1 | COc1cccc(OCCCN)c1-c1cc(Nc2cnc(C#N)cn2)n[nH]1 [Example 2, 5-(5-(2-(3-Aminopropoxy)-6-methoxyphenyl)-1H-pyrazol-3-ylamino)pyrazine-2-carbonitrile dihydrogen chloride salt] | 7 | 0.3 | little effect | – | – | – | – | – | – | – | – | – | – | – | – | – | – | –
2 | COc1cccc(OCCCN)c1-c1cc(Nc2cnc(C#N)cn2)n[nH]1 [Example 5, 5-(5-(2-(3-Aminopropoxy)-6-methoxyphenyl)-1H-pyrazol-3-ylamino)pyrazine-2-carbonitrile methanesulfonic acid monohydrate] | – | – | – | −78 | immediately reversed | complete regression | resistant to further treatment | 43 | 10/12 | 83 | 1/4 Stable Disease | 1/5 Partial | Response; 1/5 | active | 1/3 Complete | Response; 1/3 | −93 | −24
